{"source": "patent US20250017878A1", "about": "(Chronic Airway Therapeutics Limited, priority 2021, published 2025)", "key": {"[1]": {"tested_on": "asthmatic mice (ovalbumin-sensitized and ovalbumin-challenged)", "assay": "Airway responsiveness to methacholine (airway resistance Raw, forced oscillation) in murine model of asthma, Example 1", "format": "in vivo, Balb/cJ mice", "experimental": "The results obtained in drug-treated animals were compared with those obtained in vehicle-treated counterparts (controls) in experiments performed in close temporal relationship. […] Mice were sensitized with subcutaneous injection of 25 μg of ovalbumin adsorbed to aluminum hydroxide on protocol days 2, 9, and 16. Subsequently, mice were given 50 μL of saline solution containing 25 μg of ovalbumin intranasally, on a daily basis, from protocol days 23 through 27. A group of ovalbumin-sensitized saline-challenged mice serves as controls for systemic sensitization and respiratory challenges with ovalbumin. Prior to intranasal administrations, mice were sedated with halothane vapor. For the study of Example 1, ovalbumin-sensitized and ovalbumin-challenged mice, and ovalbumin-sensitized and saline-challenged mice will be referred to as asthmatic mice and control mice, respectively. […] To examine the effects of duration of β-adrenergic ligand therapy on the phenotype of the murine model of asthma, the experimental drugs were administered either acutely or chronically to different groups of asthmatic mice. […] These concentrations were chosen based on those producing therapeutic effects in mice in previously published studies. The non-asthmatic mice were fed normal chow. Salbutamol was delivered for 28 days at a dose of 0.5 mg/kg/day using an osmotic minipump (Alzet®, #2004, Durect Corporation, Cupertino, CA). […] Airway resistance (Raw) was measured using the forced oscillation technique. The cellular composition of bronchoalveolar lavage fluid (BALF) was also determined. […] However, it was observed that the degree of airway responsiveness and the number of eosinophils recovered in BALF were lower in non-treated asthmatic mice studied in close temporal relationship with mice receiving acute β-adrenergic antagonist treatments that in those obtained in non-treated asthmatic mice studied concomitantly with mice on chronic β-adrenergic antagonist therapy. […] The complex input impedance of the respiratory system was computed and the value of the real part of respiratory system impedance at 19.75 Hz was taken to reflect the magnitude of airway resistance (Raw). To examine the degree of airway responsiveness of each animal, the values for Raw as a function of methacholine doses were plotted. The largest value for Raw achieved in response to methacholine stimulation was referred to as […]. For mice that achieved a plateau in the methacholine dose-Raw response curve, the ED50 was calculated by linear interpolation using the GraphPad Prism4 (GraphPad Software, Inc.). Results obtained for β-adrenergic drug-treated and non-treated mice were performed using the analysis of variance for multiple groups of a Student's t-test for comparing two groups. The Bonferroni test was used to examine the statistical differences between experimental groups. The effects of acute drug treatments on baseline respiratory system mechanics were assessed using a two-tailed paired t-test. A value of P<0.05 was considered significant."}, "β2-adrenergic receptor [2]": {"tested_on": "β2-adrenergic receptor", "assay": "Determination of β-adrenergic receptor density by radioligand (ICYP) binding in lung membranes of treated asthmatic mice, Example 2", "format": "in vivo", "conditions": "for Apparent KD (of radioligand ICYP): KD of ICYP binding, not of the drug", "experimental": "β2-adrenergic receptor numbers were measured in asthmatic mice as follows. […] Mice were sacrificed and lung membranes were isolated as follows. Frozen lung tissue was homogenized in an ice-cold buffer containing 0.32 M sucrose and 25 mM Tris (pH 7.4) using a polytron (Pro 200, Pro Scientific, Inc.). The homogenate was centrifuged at 1000×g for 10 min at 4° C. The resulting supernatant was centrifuged at 40,000×g for 20 min at 4° C. The pellet was suspended in an ice-cold 25 mM Tris-HCl buffer (pH 7.4) and centrifuged at 40,000×g for 20 min at 4° C. The final pellet was suspended in 200 μL of 25 mM Tris-HCl (pH 7.4); membrane protein concentration was determined by BCA protein assay kit. […] The incubation was done at 37° C. for 2 h and terminated by rapid vacuum filtration through glass fiber filters. The filters were washed three times with 250 μL of cold wash buffer (25 mM Tris-HCl, pH 7.4) and the radioactivity determined in a counter. […] Receptor densities are expressed as femtomoles of sites per milligram of protein. Bmax is determined by nonlinear regression of the saturation binding curves. […] Please note that the 15-minute and 28-day time points refer to duration of drug treatment."}, "[3]": {"tested_on": "ovalbumin-sensitized, allergen-challenged mice", "assay": "Aminophylline on acute airway effects of nadolol (methacholine-induced bronchoconstriction), Example 5", "format": "in vivo", "conditions": "nadolol 0.72 mg/kg i.p. 15 minutes prior to methacholine challenge", "description": "At time point 1 (time=−10 min) baseline airway resistance of the mice was determined. At time point 2 (time=−5 min) methacholine was infused into mice to reach their EC70."}, "asthmatic mice [4]": {"tested_on": "asthmatic mice", "assay": "β-adrenergic receptor drugs at low and high doses on airway resistance, Example 7", "format": "in vivo", "experimental": "For these experiments, salbutamol was used for chronic administration at 0.5 mg/kg/day with a minipump and for acute administration at 0.15 mg/kg by i.v. bolus 15 minutes prior to challenge. […] Carvedilol was used at a high dose of 2400 ppm in chow or at a low dose of 720 ppm in chow. […] In these diagrams, Ctrl=control mice, non-asthmatic, non-drug treated; NTX=asthmatic mice, non-drug treated; AC=acute administration; 2d=chronic administration for 2 days; 28d=chronic administration for 28 days. The airway resistance (Raw) is plotted as cm H2O ml^−1 s."}, "asthmatic mice [5]": {"tested_on": "asthmatic mice", "assay": "Decrease in airway resistance (Raw) by period of administration, Example 8 / Table 2", "format": "in vivo", "experimental": "(§1) The periods of administration of the agents are 15 minutes, 2 days, and 28 days. […] This strongly supports the concept of combination therapy, such as with an inverse agonist and an agonist."}, "[6]": {"tested_on": "mucous metaplasia in sensitized/challenged mice", "assay": "Mucous metaplasia in sensitized/challenged mice (photomicrographs), Example 10", "format": "in vivo", "conditions": "sensitized/challenged mice after treatment"}, "[7]": {"tested_on": "patients who had a history of failing to quit smoking programs", "assay": "Success of smoking cessation versus placebo, Example 14", "format": "in vivo, human", "conditions": "patients who had failed quit smoking programs at least 5 times"}, "[8]": {"tested_on": "subjects with mild asthma", "assay": "Salbutamol effectiveness after methacholine challenge in subjects with mild asthma on nadolol, Example 15", "format": "in vivo, human", "conditions": "salbutamol 2.5 mg by nebulization", "text": "Salbutamol is a short-acting β2-adrenergic receptor agonist."}, "β-arrestin pathway": {"tested_on": "β-arrestin pathway", "assay": "Blockade of the β-arrestin pathway, Example 16 / FIG. 16", "format": "cell-based"}, "cAMP accumulation": {"tested_on": "cAMP accumulation", "assay": "cAMP accumulation, Example 16 / FIG. 16", "format": "cell-based"}, "[9]": {"tested_on": "asthmatic mice (ovalbumin-sensitized and ovalbumin-challenged)", "conditions": "same mouse asthma model; Callaerts-Vegh et al. 2004; cited from earlier work"}, "[10]": {"conditions": "cited from earlier work"}, "β2-adrenergic receptor [11]": {"target": "T1, β2-adrenergic receptor (Mus musculus, UniProt P18762)", "T1 sequence (P18762 whole entry)": "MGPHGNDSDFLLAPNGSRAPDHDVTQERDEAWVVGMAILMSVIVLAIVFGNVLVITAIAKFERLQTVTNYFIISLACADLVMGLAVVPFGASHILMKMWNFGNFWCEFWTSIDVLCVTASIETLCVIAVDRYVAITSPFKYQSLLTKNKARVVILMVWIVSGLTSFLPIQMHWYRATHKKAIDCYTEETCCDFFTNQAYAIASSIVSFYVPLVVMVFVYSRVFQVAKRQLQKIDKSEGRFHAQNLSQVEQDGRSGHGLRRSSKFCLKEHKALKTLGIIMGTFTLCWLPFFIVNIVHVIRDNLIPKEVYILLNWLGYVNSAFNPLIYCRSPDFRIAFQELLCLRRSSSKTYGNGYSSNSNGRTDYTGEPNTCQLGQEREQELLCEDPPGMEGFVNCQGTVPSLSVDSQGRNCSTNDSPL", "assay": "Upregulation of β2-adrenergic receptor density by period of administration, Example 8 / Table 2", "format": "in vivo, mice", "design": "from tissue", "experimental": "as §1"}, "β2-adrenergic receptor [12]": {"target": "T1, β2-adrenergic receptor", "assay": "Immunohistochemistry of β2-adrenergic receptor levels in lung sections, Example 3", "format": "in vivo, mice", "design": "from tissue; host or cells: mouse lung sections", "conditions": "chronic nadolol versus untreated animals; epifluorescent microscopy", "experimental": "The mice were sacrificed and the lungs excised. Then the lungs were fixed in 4% paraformaldehyde (45 min, 0° C.). After fixation, lungs were washed in PBS (60 min) and placed in increasing concentrations of sucrose (10% sucrose/5% glycine in PBS for 30 min; 20% sucrose/10% glycine in PBS for 30 min; 30% sucrose/15% glycine in PBS for 12 h at 4° C.). Lungs were embedded in OCT and 12-μm sections cut with a Tissue-Tek II cryostat. The sections were air-dried and fixed with 4% paraformaldehyde for 15 minutes. After 3 washes in PBS, the slides were blocked with 5% milk in PBS for 1 hour, and then incubated overnight with anti-β2-adrenergic receptor antibody (1:200, Santa Cruz Biotechnology) in blocking solution. Slides were washed in PBS and incubated with secondary antibody (1:200, Cy3 goat anti-rabbit antibody, 16 h at 4° C.). […] After washing with PBS, coverslips were mounted and viewed by epifluorescent microscopy."}}, "data": [{"smiles": "CC(C)(C)NCC(O)COc1cccc2c1CC(O)C(O)C2", "note": "(stereo not shown) [Nadolol, nadolol]", "values": [{"measurement": "airway responsiveness to methacholine provocation (Raw), chronic treatment", "setting": "[1]; drug delivered for 28 days (chow or osmotic minipump)", "result": "produced a decrease in airway responsiveness, which was more pronounced than that caused by carvedilol treatment"}, {"measurement": "airway responsiveness to methacholine provocation (Raw), acute treatment", "setting": "[1]; single intravenous bolus 15 minutes before methacholine", "result": "enhanced the airway responsiveness of asthmatic mice"}, {"measurement": "increase of the level of β2-adrenergic receptors over the non-treated mice", "setting": "β2-adrenergic receptor [2]; chronic administration, versus untreated methacholine-challenged asthmatic mice", "result": "nearly eightfold increase"}, {"measurement": "Apparent KD (of radioligand ICYP)", "setting": "β2-adrenergic receptor [2]; lung membranes, drug treatment 15 Minutes", "result": "(695.1 ± 286.3) pM"}, {"measurement": "Bmax (β-adrenergic receptor density)", "setting": "β2-adrenergic receptor [2]; lung membranes, drug treatment 15 Minutes, mean ± SEM, n=3-5", "result": "181.9 ± 48.28 femtomoles of sites per milligram of protein"}, {"measurement": "Apparent KD (of radioligand ICYP)", "setting": "β2-adrenergic receptor [2]; lung membranes, drug treatment 28 Days", "result": "(1591.6 ± 335.0) pM"}, {"measurement": "βmax (β-adrenergic receptor density)", "setting": "β2-adrenergic receptor [2]; lung membranes, drug treatment 28 Days, mean ± SEM, n=3-5", "result": "785.5 ± 154.8 femtomoles of sites per milligram of protein"}, {"measurement": "baseline airway resistance", "setting": "[3]", "result": "the same baseline airway resistance as non-drug treated sensitized and allergen-challenged mice"}, {"measurement": "protection from airway hyperresponsiveness", "setting": "asthmatic mice [4]; chronic administration in chow, high and low dose", "result": "providing protection from airway hyperresponsiveness with chronic administration"}, {"measurement": "airway resistance (Raw) at 1 ppm in chow", "setting": "asthmatic mice [4]; nadolol 1 ppm in chow", "result": "identical to the untreated mice"}, {"measurement": "Decreased Raw", "setting": "asthmatic mice [5]; 15 minutes administration", "result": "no"}, {"measurement": "Decreased Raw", "setting": "asthmatic mice [5]; 2 days administration", "result": "yes"}, {"measurement": "Decreased Raw", "setting": "asthmatic mice [5]; 28 days administration", "result": "yes"}, {"measurement": "mucous metaplasia", "setting": "[6]", "result": "nearly complete elimination of mucous metaplasia"}, {"measurement": "reduction in smoking", "setting": "[7]", "result": 70, "unit": "%"}, {"measurement": "effect on effectiveness of salbutamol after methacholine challenge", "setting": "[8]", "result": "does not block the effectiveness of the administration of salbutamol"}, {"measurement": "block of the β-arrestin pathway", "setting": "β-arrestin pathway", "result": "acts to block the β-arrestin pathway"}, {"measurement": "cAMP accumulation", "setting": "cAMP accumulation", "result": "not associated with cAMP accumulation"}, {"measurement": "airway hyperresponsiveness, administered acutely", "setting": "[9]", "result": "worsens airway hyperresponsiveness"}, {"measurement": "airway hyperresponsiveness, administered chronically", "setting": "[9]", "result": "prevents airway hyperresponsiveness"}, {"measurement": "lipid solubility", "setting": "[10]", "result": "low lipid solubility"}, {"measurement": "Increased β2AR density", "setting": "β2-adrenergic receptor [11]; 15 minutes administration", "result": "no"}, {"measurement": "Increased β2AR density", "setting": "β2-adrenergic receptor [11]; 2 days administration", "result": "yes"}, {"measurement": "Increased β2AR density", "setting": "β2-adrenergic receptor [11]; 28 days administration", "result": "yes"}, {"measurement": "labeling with anti-β2-adrenergic receptor antibodies in lungs", "setting": "β2-adrenergic receptor [12]", "result": "considerably more intense"}]}]}
